This is an account of results in patent US20070104774A1, “Method for preparing phytosphingosine liposome composition” (priority 2003, published 2007).

For series [1] the following is noted: cited from earlier work.
A short description of series [2]: Stability test of water lotion formulation of phytosphingosine liposome: size and sedimentation on storage at R.T. and low temperature. It is filed as physicochemical. Particulars: dissolved using an acid only such as lactic acid; as time went by and at low temperatures. The protocol:
For a liposome solution containing 4 wt. % of phytosphingosine prepared according to Examples 3 and 7 and a solution in which the liposome solution was diluted so as to make a final concentration of phytosphingosine be 0.5% in a water lotion product, it was examined a stability of phytosphingosine liposome in water lotion formulation, based on sizes and sedimentation states as time went by and sizes and sedimentation states when storing at R.T. and a low temperature, respectively. Water lotion formulations used in the above test are as follows. The unit is wt. %. In water lotion formulations of liposome containing phytosphingosine, results of size variations as time went by are as follows. The unit is nm.

For the compound `CCCCCCCCCCCCCC[C@@H](O)[C@@H](O)[C@@H](N)CO` [phytosphingosine], the “solubility in isocetyl alcohol” value in series [1] (isocetyl alcohol solvent) is on record as 1 wt. %. Besides, the solubility in water entry in series [1] (water) is “never dissolved in water”. Also, the behaviour on storage result in series [2] is “recrystallized”.
